From patent publication US20260198495A1, “BINARY INSECTICIDE COMPOSITION AND USE THEREOF” (SHENYANG SINOCHEM AGROCHEMICALS R & D CO., LTD., priority 2022, published 2026) come the findings set out here.

Holding throughout (assay type): in vivo
In test [1] the test system is 3rd-instar larvae of Spodoptera frugiperda. The experiment in a line: Joint toxicity of I-72 + indoxacarb, corn leaf dipping, Example 3, Table 3. The following applies: Spodoptera frugiperda, foliar, 72 h, A = compound I-72, B = indoxacarb, read-out: LC50. The text has this:
Test subject: 3rd-instar larvae of Spodoptera frugiperda, a sensitive strain reared indoors.
Experimental method: the dipping method was adopted. The corn leaves cultivated in the greenhouse were taken, cut into leaf segments of 5 cm long, dipped in the prepared pesticide solution for 10 s, and then cut into small pieces of 1.5 cm×1.5 cm after natural air-drying in the shade. These pieces were placed in a 24-well culture plate, and the standard test insects were introduced, with 48 insects for each treatment. The treated test insects were placed in an observation room under certain conditions. The reaction of the test insects was regularly observed, and the number of dead and live insects was investigated 72 h later.
The test conditions, the preparation method of the pesticide solution, and the evaluation method (Sun Y-P) for the joint action type of the mixture were the same as those in Example 1.

In test [2] the test system is adult Bemisia tabaci (Gennadius). Kind of test: Joint toxicity of I-72 + abamectin, seedling spraying, Example 13, Table 13. The following applies: Bemisia tabaci; adults, kidney bean seedling spraying, 72 h; A = compound I-72, B = abamectin; read-out: LC50. The text has this:
Test subject: adult Bemisia tabaci (Gennadius), a sensitive strain reared indoors.
Experimental method: the spraying method was adopted. The kidney bean seedlings cultivated in the greenhouse were selected and evenly sprayed with the pesticide solution in the order from low dosage to high dosage according to the experimental design. After natural air-drying in the shade, a self-made glass cover was put on, and the test insects were introduced, with 20-30 insects for each treatment and 3 replicates. In addition, a blank control was set up. The number of dead and live insects was investigated 72 hours later. The corrected mortality rate was calculated using the Abbott's formula, and the DPS data processing software was used for statistical analysis to calculate the toxicities (LC50 values) of the single test pesticides and the mixtures under the test ratios.
The test conditions, the preparation of the pesticide solution and the evaluation method were the same as those in Example 1.
The test subject, the test method, the test conditions, the preparation of the pesticide solution and the evaluation method were the same as those in Example 12.

The subject of test [3] is 2nd-instar nymphs of Frankliniella occidentalis Pergande. Kind of test: Joint toxicity of I-72 + carbosulfan, leaf spraying, Example 22, Table 22. The following applies: 2nd-instar nymphs, kidney bean leaf spraying, 48 h, A = compound I-72, B = carbosulfan, read-out: LC50. How it is done:
Test subject: 2nd-instar nymphs of Frankliniella occidentalis Pergande, a sensitive strain reared indoors.
Preparation of the pesticide solution: according to different test requirements, the test samples in Table 1 were accurately weighed respectively with an electronic analytical balance. The technical pesticides were dissolved in acetone, and then diluted with 0.1% Tween 80 water into a series of pesticide solutions with a certain concentration gradient according to the experimental design dosage.
Test conditions: temperature: 25-27° C., humidity: RH 60%, and illumination: L:D=14:10
Experimental method: the spraying method was adopted. The kidney bean leaves cultivated in the greenhouse were selected, and the petioles were wrapped with moist degreased cotton and sealing film. They were evenly sprayed with the pesticide solution in the order from low dosage to high dosage according to the experimental design, placed in a 6-cm-diameter Petri dish with filter paper. After natural air-drying in the shade, the test insects were introduced, with 20 insects for each treatment and 3 replicates. In addition, a blank control was set up. […] The corrected mortality rate was calculated using the Abbott's formula, and the DPS data processing software was used for statistical analysis to calculate the toxicities (LC50 values) of the single test pesticides and the mixtures under the test ratios. […]

For test [4], the system named is 2nd-instar larvae of Plutella xylostella. The experiment in a line: Synergism screening (Bliss) of I-72 + insect attractants and insecticides, Example 49, Table 49. The following applies: Plutella xylostella; single pesticide, 0.1 mg/L; 72 hours; read-out: Measured mortality rate. How it is done: Test target: 2nd-instar larvae of Plutella xylostella.
(§1) Preparation of the pesticide solution: according to different test requirements, the test samples were accurately weighed respectively with an electronic analytical balance. The technical pesticides were dissolved in acetone, and then diluted with 0.1% Tween 80 water into a series of pesticide solutions with a certain concentration gradient according to the experimental design dosage.
Experimental method: first, cabbage leaves were selected and dipped in the prepared pesticide solution for 10 s in the order from low dosage to high dosage according to the experimental design. After natural air-drying in the shade, they were placed in a 9-cm-diameter Petri dish with filter paper, and uniform and healthy test insects were introduced, with 10 insects for each treatment and 3 replicates for each treatment. In addition, a blank control CK was set up.
The treated test materials were placed in an observation room, and the temperature, humidity and illumination of the observation room could be adjusted as needed. The number of dead and alive insects was investigated 72 hours later, and the corrected mortality rate was calculated using the Abbott's formula.
The synergism of the mixture was evaluated by adopting the Bliss method, as in Example 5.

Test [5] deals with adult Phyllotreta vittuta Fabr. The experiment in a line: Joint toxicity of I-72 + acetamiprid, Example 65, Table 65. The following applies: A = compound I-72, B = acetamiprid; potted cabbage seedling spraying; 72 hours; read-out: LC50. How it is done:
Test target: adult Phyllotreta vittuta Fabr.
as §1
Experimental method: first, uniform and consistent potted cabbage seedlings were selected. Then, uniform spraying was performed with the pesticide solution in the order from low dosage to high dosage according to the experimental design. After air-drying in the shade, adult flea beetles were transferred onto the treated cabbage seedlings, and then glass covers were put on them, with about 30-40 adult flea beetles on each seedling and 3 replicates for each treatment. In addition, a blank control was set up.
The treated test materials were placed in an observation room, and the temperature, humidity and illumination of the observation room could be adjusted as needed. The number of dead and live insects was investigated 72 hours later.

For test [6], the system named is early 2nd-instar grubs of Holotrichia diomphalia Bates. Kind of test: whole plant or invertebrate. The following applies: Holotrichia diomphalia; A = compound I-72, B = tebuconazole; insect-dipping; 72 hours; read-out: LC50. How it is done:
Test target: early 2nd-instar grubs of Holotrichia diomphalia Bates.
Test conditions: temperature: 24-26° C., humidity: RH 60%, and illumination: L:D=14:10
as §1
Experimental method: the activity against Holotrichia diomphalia Bates was determined by the insect-dipping method. The early 2nd-instar grubs of Holotrichia diomphalia Bates were selected. The target insects were dipped into the pesticide solution for 10 s and then taken out. Excess pesticide solution was absorbed with filter paper. […] A treatment without the pesticide was set as the blank control.
The test insects were transferred to a multi-well culture plate with fresh potato pieces and placed in an observation room, and the temperature, humidity and illumination of the observation room could be adjusted as needed. The number of dead and live insects was investigated 72 hours later. The corrected mortality rate was calculated using the Abbott's formula, and statistical analysis was performed with the DPS data processing software to obtain the toxicity regression equation and LC50 value of each single test pesticide and each mixture of different ratios.

Molecules are shown by their SMILES. Converted amounts (≈) assume the structure as drawn.

What is called LC50 is the concentration lethal to half of the exposed cells or organisms. One may read the mortality as the share of the test organisms that died.

As for `CN(C(=O)c1ccc2c(c1)OC(F)(F)O2)c1cccc(C(=O)Nc2c(Br)cc(C(F)(C(F)(F)F)C(F)(F)F)cc2OC(F)F)c1F` [Compound I-72], the LC50 in test [1] was determined as 0.0737 µg/mL; in test [2], 2.97 µg/mL; in test [3], 2.15 µg/mL; in test [5], 1.14 µg/mL; in test [6], 63.4 µg/mL (≈ 85.5 µM). Further, in test [4], the mortality at 0.1 µg/mL is 46.9%.
